Data on 25 compounds can be found in patent publication US12492337B2, “Fluorescent probe, preparation method therefor and use thereof” (FLUORESCENCE DIAGNOSIS (SHANGHAI) BIOTECH COMPANY, priority 2017, dated 2025).

Each structure is given as a SMILES string.

Data set [1] can be described thus: Quantum yield of free probe not reacted with protein tag. It is filed as physicochemical. How it is done:
(§1) A probe was mixed with a corresponding HaloTag protein tag to obtain a mixed sample. The final concentration of the probe in the mixed sample was 5 μM and the final concentration of the protein tag was 10 μM. The mixed sample was incubated at 37° C. for 1 hour, and the sample was detected using a fluorescence spectrophotometer.

Data set [2] can be described thus: Viscosity responsiveness: fluorescence intensity in glycerol versus methanol. Type of data set: physicochemical. The conditions noted are these: fluorescence intensity in glycerol to that in methanol. How it is done:
The above-mentioned viscosity-responsive fluorescent dye means that the fluorescence intensity of the dye responds to the viscosity of the solution. As the viscosity of the solution increases, the fluorescence intensity increases. Optionally, the viscosity-responsive fluorescent dye is an organic dye molecule which, under the same concentration and excitation wavelength, at 25° C. has a ratio • of the maximum fluorescence emission intensity of the dye in glycerol to the fluorescence intensity in methanol of greater than 2, optionally greater than 5, optionally greater than 10. The concentration of the viscosity-responsive dye ranges from 1×10^−7 M to 1×10^−5 M.

Data set [3] deals with HaloTag protein tag. As to the kind of experiment: Probe mixed with HaloTag protein tag, fluorescence spectrophotometer (Example 86). Type of data set: biochemical. The conditions noted are these: 5 μM probe, 10 μM protein tag, 37° C., 1 hour; for Fluorescence enhancement: fluorescence activation multiple after binding protein tag; for Emission/nm: fluorescence emission wavelength. How it is done: as §1

On to `CC1=N/C(=C\c2cc3ccc(N(C)CCOC(=O)NCCOCCOCCCCCCCl)cc3s2)C(=O)N1C` [Probe 17], for which the “The quantum yield of the free probe” value in data set [1] is less than 0.001. In addition, in data set [2], the ratio is 402. Moreover, in data set [3], the “The quantum yield after binding to Halo-tag” value is reported as 0.56, the Fluorescence enhancement is listed as 498 and the Emission/nm is reported as 575 nm.

As for `CN1C(=O)/C(=C/c2ccc(N(C)CCOC(=O)NCCOCCOCCCCCCCl)cc2)N=C1/C=C/c1ccccc1` [Probe 7], the “The quantum yield of the free probe” value in data set [1] is less than 0.001. In addition, the ratio in data set [2] is listed as 1455. Besides, in data set [3], the “The quantum yield after binding to Halo-tag” value is listed as 0.46, the Fluorescence enhancement amounted to 1502 and the Emission/nm is 580 nm.

`CN(CCOC(=O)NCCOCCOCCCCCCCl)c1cc2sc3cc(/C=C(\C#N)C(=O)OC(C)(C)C)sc3c2s1` [Probe 29]: the “The quantum yield of the free probe” value in data set [1] is less than 0.001. Also, in data set [2], the ratio is recorded as 998. Further, in data set [3], the “The quantum yield after binding to Halo-tag” value turned out to be 0.53, the Fluorescence enhancement was 621 and the Emission/nm amounted to 640 nm.

With `CN(C)c1cc2c(s1)-c1sc(/C=C(\C#N)C(=S)NCCOCCOCCCCCCCl)cc1[Si]2(C)C` [Probe 83], the “The quantum yield of the free probe” value in data set [1] is less than 0.001. Also, the ratio in data set [2] is 652. Further, in data set [3], the “The quantum yield after binding to Halo-tag” value stood at 0.53, the Fluorescence enhancement was determined as 456 and the Emission/nm was 680 nm.

For `CN(CCOC(=O)NCCOCCOCCCCCCCl)c1ccc2nc(/C=C(\C#N)C(=O)OC(C)(C)C)oc2c1` [Probe 19], the “The quantum yield of the free probe” value in data set [1] was 0.0012. In data set [2], the ratio was found to be 299. In data set [3], the “The quantum yield after binding to Halo-tag” value came to 0.53, the Fluorescence enhancement is reported as 561 and the Emission/nm was 625 nm.

With `CN(CCOC(=O)NCCOCCOCCCCCCCl)c1cc2c(s1)-c1sc(/C=C(\C#N)c3nc4ccccc4o3)cc1C2(C)C` [Probe 49], the “The quantum yield of the free probe” value in data set [1] is less than 0.001. Moreover, in data set [2], the ratio came to 334. For the same compound, in data set [3], the “The quantum yield after binding to Halo-tag” value is 0.54, the Fluorescence enhancement turned out to be 541 and the Emission/nm came to 680 nm.

As to `CN(CCOC(=O)NCCOCCOCCCCCCCl)c1cc2sc3cc(/C=C(\C#N)c4nc5ccccc5o4)sc3c2s1` [Probe 30], the “The quantum yield of the free probe” value in data set [1] is less than 0.001. For the same compound, the ratio in data set [2] is on record as 1125. Moreover, in data set [3], the “The quantum yield after binding to Halo-tag” value is 0.60, the Fluorescence enhancement was found to be 535 and the Emission/nm is on record as 620 nm.

As for `CN(CCOC(=O)NCCOCCOCCCCCCCl)c1cc2c(s1)-c1sc(/C=C(\C#N)C(=O)OC(C)(C)C)cc1C2(C)C` [Probe 48], the “The quantum yield of the free probe” value in data set [1] was less than 0.001. Also, the ratio in data set [2] is 480. In data set [3], the “The quantum yield after binding to Halo-tag” value is 0.57, the Fluorescence enhancement is recorded as 428 and the Emission/nm turned out to be 645 nm.

For `CN(CCOC(=O)NCCOCCOCCCCCCCl)c1cc2cc3sc(/C=C(\C#N)C(=O)OC(C)(C)C)cc3cc2s1` [Probe 36], the “The quantum yield of the free probe” value in data set [1] was found to be 0.001. In addition, the ratio in data set [2] was found to be 1258. Further, in data set [3], the “The quantum yield after binding to Halo-tag” value was 0.58, the Fluorescence enhancement is reported as 488 and the Emission/nm worked out at 630 nm.

Turning to `CN(C)c1ccc2cc(/C=C(\C#N)C(=O)NCCOCCCl)sc2c1` [Probe 68], the “The quantum yield of the free probe” value in data set [1] is listed as less than 0.001. The ratio in data set [2] stood at 381. Also, in data set [3], the “The quantum yield after binding to Halo-tag” value came out at 0.50, the Fluorescence enhancement turned out to be 681 and the Emission/nm turned out to be 580 nm.

As to `CN1C(=O)/C(=C/c2ccc(N(C)CCOC(=O)NCCOCCOCCCCCCCl)cc2)N=C1c1ccccc1` [Probe 6], the “The quantum yield of the free probe” value in data set [1] is less than 0.001. In addition, in data set [2], the ratio is recorded as 1183. In data set [3], the “The quantum yield after binding to Halo-tag” value came out at 0.40, the Fluorescence enhancement is recorded as 989 and the Emission/nm came to 530 nm.

Turning to `CN(C)c1ccc2cc(/C=C(\C#N)C(=O)OCCOCCOCCCCCCCl)sc2c1` [Probe 64], the “The quantum yield of the free probe” value in data set [1] is less than 0.001. Further, the ratio in data set [2] was 632. Besides, in data set [3], the “The quantum yield after binding to Halo-tag” value came to 0.60, the Fluorescence enhancement is listed as 519 and the Emission/nm came to 585 nm.

For the compound `CN1C(=O)/C(=C/c2nc3ccc(N(C)CCOC(=O)NCCOCCOCCCCCCCl)cc3o2)N=C1c1ccccc1` [Probe 22], in data set [1], the “The quantum yield of the free probe” value is on record as less than 0.001. Besides, in data set [2], the ratio worked out at 1821. In addition, in data set [3], the “The quantum yield after binding to Halo-tag” value was 0.36, the Fluorescence enhancement turned out to be 610 and the Emission/nm amounted to 632 nm.

For `CN(CCOC(=O)NCCOCCOCCCCCCCl)c1cc2c(s1)-c1sc(/C=C(\C#N)c3nc4ccccc4s3)cc1[Si]2(C)C` [Probe 39], in data set [1], the “The quantum yield of the free probe” value is given as 0.0016. The ratio in data set [2] is 892. In data set [3], the “The quantum yield after binding to Halo-tag” value came to 0.38, the Fluorescence enhancement turned out to be 335 and the Emission/nm is on record as 700 nm.

On to `CN1C(=O)/C(=C\c2cc3c(s2)-c2sc(N(C)CCOC(=O)NCCOCCOCCCCCCCl)cc2[Si]3(C)C)SC1=S` [Probe 56], for which, in data set [1], the “The quantum yield of the free probe” value is on record as less than 0.001. For the same compound, the ratio in data set [2] is 436. Further, in data set [3], the “The quantum yield after binding to Halo-tag” value stood at 0.47, the Fluorescence enhancement is on record as 989 and the Emission/nm is recorded as 725 nm.

Turning to `CN(CCOC(=O)NCCOCCOCCCCCCCl)c1ccc2nc(/C=C(\C#N)c3nc4ccccc4s3)oc2c1` [Probe 23], the “The quantum yield of the free probe” value in data set [1] is listed as less than 0.001. In data set [2], the ratio is given as 1235. In data set [3], the “The quantum yield after binding to Halo-tag” value is 0.52, the Fluorescence enhancement came to 712 and the Emission/nm amounted to 637 nm.

On to `COCCNC(=S)/C(C#N)=C/c1cc2c(s1)-c1sc(N(C)CCOC(=O)NCCOCCOCCCCCCCl)cc1C2(C)C` [Probe 52], for which the “The quantum yield of the free probe” value in data set [1] is on record as less than 0.001. Further, the ratio in data set [2] is 270. Further, in data set [3], the “The quantum yield after binding to Halo-tag” value amounted to 0.47, the Fluorescence enhancement is reported as 435 and the Emission/nm came out at 670 nm.

For the compound `CN1C(=O)/C(=C\c2cc3c(s2)-c2sc(N(C)CCOC(=O)NCCOCCOCCCCCCCl)cc2C3(C)C)SC1=S` [Probe 55], the “The quantum yield of the free probe” value in data set [1] was less than 0.001. In addition, the ratio in data set [2] was determined as 211. For the same compound, in data set [3], the “The quantum yield after binding to Halo-tag” value was found to be 0.39, the Fluorescence enhancement is on record as 382 and the Emission/nm is 660 nm.

Turning to `CN(C)c1ccc(-c2ccc(/C=C3\SC(=O)N(CCOCCOCCCCCCCl)C3=O)s2)s1` [Probe 81], in data set [1], the “The quantum yield of the free probe” value is given as less than 0.001. Also, in data set [2], the ratio amounted to 521. Further, in data set [3], the “The quantum yield after binding to Halo-tag” value turned out to be 0.40, the Fluorescence enhancement worked out at 563 and the Emission/nm amounted to 743 nm.

With `COCCNC(=S)/C(C#N)=C/c1cc2c(s1)-c1sc(N(C)CCOC(=O)NCCOCCOCCCCCCCl)cc1[Si]2(C)C` [Probe 54], the “The quantum yield of the free probe” value in data set [1] is less than 0.001. Besides, in data set [2], the ratio is reported as 391. In data set [3], the “The quantum yield after binding to Halo-tag” value was 0.41, the Fluorescence enhancement is listed as 498 and the Emission/nm was 710 nm.

Take `CN(CCOC(=O)NCCOCCOCCCCCCCl)c1ccc(/C=C(\C#N)C(=O)OC(C)(C)C)cc1` [Probe 1]: in data set [1], the “The quantum yield of the free probe” value is listed as less than 0.001. The ratio in data set [2] was determined as 560. Also, in data set [3], the “The quantum yield after binding to Halo-tag” value came out at 0.52, the Fluorescence enhancement is listed as 500 and the Emission/nm amounted to 480 nm.

With `CN(CCOC(=O)NCCOCCOCCCCCCCl)c1cc2sc(/C=C(\C#N)C(=O)O)cc2s1` [Probe 12], the “The quantum yield of the free probe” value in data set [1] is listed as 0.0012. For the same compound, the ratio in data set [2] is given as 405. Further, in data set [3], the “The quantum yield after binding to Halo-tag” value worked out at 0.41, the Fluorescence enhancement is listed as 750 and the Emission/nm was 555 nm.

For the compound `CC(C)(C)OC(=O)/C(C#N)=C/c1ccc2c(c1)SCCN2CCOC(=O)NCCOCCOCCCCCCCl` [Probe 44], the “The quantum yield of the free probe” value in data set [1] was less than 0.001. In data set [2], the ratio came to 1459. Besides, in data set [3], the “The quantum yield after binding to Halo-tag” value came out at 0.63, the Fluorescence enhancement is given as 1586 and the Emission/nm is listed as 521 nm.

On to `N#C/C(=C\c1ccc2c(c1)SCCN2CCOC(=O)NCCOCCOCCCCCCCl)c1nc2ccccc2o1` [Probe 45], for which the “The quantum yield of the free probe” value in data set [1] is listed as less than 0.001. Besides, the ratio in data set [2] is reported as 752. Further, in data set [3], the “The quantum yield after binding to Halo-tag” value amounted to 0.54, the Fluorescence enhancement came out at 958 and the Emission/nm is 545 nm.

As to `CN(CCOC(=O)NCCOCCOCCCCCCCl)c1ccc2nc(/C=C(\C#N)C(=O)O)oc2c1` [Probe 21], the “The quantum yield of the free probe” value in data set [1] is less than 0.001. In data set [2], the ratio worked out at 1481. Besides, in data set [3], the “The quantum yield after binding to Halo-tag” value was 0.48, the Fluorescence enhancement is recorded as 560 and the Emission/nm came to 628 nm.
